Values of other authors as cited in US6447754B1, “Oral rinse methods and compositions” (AkPharma Inc., priority 2000, dated 2002).

Settings: in animals; ingestion

Substance: 1,2,3-propanetriol, mono(dihydrogen phosphate) calcium salt (1:1) [CGP]
- upper limit of CGP which can safely be ingested: greater than 5 grams of CGP per kilogram of body weight
